Results published in paper PMC11802874, “The hypolipidemic effect of MI-883, the combined CAR agonist/ PXR antagonist, in diet-induced hypercholesterolemia model” (Nature Communications, 2025).
“And” between values parts separate entries of the source, which are not always exact repeats. Equal entries are not always repeated. “Also recorded” adds a separate entry of the source. Where two headings read alike, the source gives them in different places.

Columns and labels:
human PXR = target: T1, human PXR (Homo sapiens, UniProt O75469); assay: PXR luciferase reporter gene assay (CYP3A4-luc) in HepG2 cells; format: cell-based; set-up: host or cells: HepG2
T1 sequence (O75469 1-434): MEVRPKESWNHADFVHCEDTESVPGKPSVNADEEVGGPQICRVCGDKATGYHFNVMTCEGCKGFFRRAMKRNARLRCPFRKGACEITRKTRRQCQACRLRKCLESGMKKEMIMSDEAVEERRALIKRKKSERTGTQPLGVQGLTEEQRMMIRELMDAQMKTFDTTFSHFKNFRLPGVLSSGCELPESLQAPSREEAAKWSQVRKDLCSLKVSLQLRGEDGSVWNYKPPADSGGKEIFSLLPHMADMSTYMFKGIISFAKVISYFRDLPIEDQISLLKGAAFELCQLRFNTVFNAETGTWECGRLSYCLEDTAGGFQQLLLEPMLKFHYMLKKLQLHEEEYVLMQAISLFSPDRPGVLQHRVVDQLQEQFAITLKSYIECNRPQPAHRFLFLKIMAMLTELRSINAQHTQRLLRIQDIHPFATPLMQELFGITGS
Method: The half maximal effective concentration (EC50) to activate CAR or inhibit PXR (IC50) in the assays was calculated from at least eight points of the dose-response curves using the GraphPad Prism software.

[1] = test system: humanized PXR-CAR-CYP3A4/3A7 mice, liver; assay: Liver cholesterol, C4 and lathosterol analysis (HFD study); format: in vivo, mouse; set-up: liver total cholesterol (TotCh), individual animals / liver free cholesterol (Free CH), individual animals / liver cholesteryl esters (CE), individual animals / liver C4, individual animals / liver lathosterol, individual animals: unit not given here
Method: Cholesterol (Ch, total and free Ch), C4, and lathosterol determination were performed in liver tissue (25–80 mg fresh weight) using GC-MS according to Cohen et al.[67] (detailed protocol in Supplementary, Chapter 14). Internal standard (d7-cholesterol, Sigma Aldrich/Merck) was used. Solid phase extraction[68] and analysis were performed using LC-MS/MS as described previously. Protein quantification was done using DC Protein Assay (Bio-Rad) according to manufacturer instructions (micro assay format). All samples were analyzed for protein content in triplicates and analyzed.
Liver tissue (25-80 mg fresh weight) was diluted 10x with PBS (by weight), cut into small pieces using scissors, and treated with multiple (10-20) short pulses of ultrasound until a smooth homogenate was obtained. This 10% liver sonicate was used in subsequent analyses.
Lathosterol was measured using the same procedure as for free cholesterol with slight modifications: the volume of liver homogenate as well as the injection volume were increased (100 µL and 2 µL, respectively) while the amount of internal standard was reduced to approximately 100 ng. Also, the mixture was sonicated for 10 minutes after adding ethanol.
Liver sonicate (10%) was further diluted 30x (by weight) and 5 µL was analyzed using DC Protein Assay (Bio-Rad) according to manufacturer instructions (microassay format). Bovine serum albumin was used as standard. All samples were analyzed in triplicates.

[2] = Stability in human plasma; format: in vitro ADME; conditions: plasma (legend: pooled human serum), read-out: Stability in human plasma, t1/2
Method: Plasma protein binding, and stability in human and mouse plasma have been tested as previously described. Supplementary Figure 1. […] Four time points over 120 minutes have been analyzed. […] Compounds were tested in triplicate with or without NADPH.

[3] = test system: Salmonella typhimurium TA 98, TA 100, TA 1535, TA 1537; Escherichia coli WP2 uvrA; assay: Reverse-mutation Ames test / Bacterial Reverse Mutation Test; conditions: with and without metabolic activation
Description: The mutagenic activity of MI-883 was detected using the commercially available Muta-ChromoPlate bacterial strain kit (ebpi, Mississauga, Ontario, Canada), which is a 96-well microplate version of the reverse-mutation Salmonella typhimurium Ames test with S9 rat-liver extract. Salmonella typhimurium tester strains TA 98 (detection of frameshift mutagens) and TA 100 (detection of base-exchange mutations) were used as we described before^1.
Consistently, Bacterial Reverse Mutation Test was performed as a service at Research Institute for Organic Syntheses Inc., (Pardubice, Czech Republic) in Salmonella typhimurium strains TA 98, TA 100, TA 1535, TA 1537, and one indicator Escherichia coli WP2 uvrA strains. The report is available after request.

[4] = test system: LS174T cells (endogenous PXR); assay: CYP3A4 mRNA RT-qPCR in LS174T cells
Description: LS174T human colon adenocarcinoma cells (RRID:CVCL_1384) were used in induction experiments with the subsequent CYP3A4 mRNA RT-qPCR analysis as they express functional endogenous PXR.

PPARδ/β = PPARδ/β (Homo sapiens, UniProt Q03181); assay: Luciferase reporter gene assay PPARδ/β, HepG2
Sequence of PPARδ/β (Q03181 211-439 limits assumed): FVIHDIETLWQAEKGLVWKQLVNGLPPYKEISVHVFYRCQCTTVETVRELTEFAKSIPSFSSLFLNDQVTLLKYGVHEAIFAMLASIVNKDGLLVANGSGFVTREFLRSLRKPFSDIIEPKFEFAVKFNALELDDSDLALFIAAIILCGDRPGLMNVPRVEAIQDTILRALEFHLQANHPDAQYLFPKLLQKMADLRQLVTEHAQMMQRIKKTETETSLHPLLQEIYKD
Description: The luciferase reporter gene assays for FXR, LXRα, LXRβ, THα, GRα, PPARα, PPARδ/β, PPARγ, AhR, VD, ERα, ERβ and mouse Car are described in our recent paper[19]
Gal4-LBD constructs of tested nuclear receptors have been used together with pGL4.31[luc2P/GAL4UAS/Hygro] luciferase reporter construct and pRL-TK Renilla expression vector (both from Promega, Hercules, USA) in HepG2 cells transfected with Lipofectamine 2000 or 3000 reagents. For GRα and FXR receptors, full-length expression vectors have been used with pGRE-luc or pFXRE-luc luciferase constructs. For the aryl hydrocarbon receptor (AhR), p1A1-luc construct was used with only pRL-TK vector for transfection normalization. A dual reporter assay (Promega, Hercules, USA) was used to analyze both firefly and Renilla luciferase activities.
Gal4-LBD constructs of tested nuclear receptors have been used together with pGL5-luc luciferase reporter construct and pRL-TK Renilla expression vector in HepG2 cells transfected with Lipofectamine 2000 or 3000 reagents. For GRα and FXR receptors, full-length expression vectors have been used with pGRE-luc or pFXRE-luc luciferase constructs. For the aryl hydrocarbon receptor (AhR), p1A1-luc construct was used with only pRL-TK vector for transfection normalization. […] Bars represent means±S.D. (n=3).

ERα = ERα (Homo sapiens, UniProt P03372); assay: Luciferase reporter gene assay ERα, HepG2; format: cell-based
Sequence of ERα (P03372 311-547 limits assumed, species assumed): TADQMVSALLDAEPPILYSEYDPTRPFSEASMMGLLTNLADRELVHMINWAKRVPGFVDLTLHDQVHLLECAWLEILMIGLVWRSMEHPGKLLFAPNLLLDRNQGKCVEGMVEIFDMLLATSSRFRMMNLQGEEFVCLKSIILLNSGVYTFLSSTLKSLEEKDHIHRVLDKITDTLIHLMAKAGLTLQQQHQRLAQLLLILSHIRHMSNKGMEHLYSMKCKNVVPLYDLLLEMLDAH
Description: (see Supplementary Chapter 7).
Thank you for the insightful question and comment. We have corrected the sentence to read:
Thank you for the idea. Yes, we conducted luciferase reporter assays in antagonistic "mode" for several nuclear receptors using their prototype ligands in the revised manuscript (Figure R7).
This information is included in the Supplementary Information.
Treatment with 5 and 10 µM
(1 picture or pasted object on this page, not shown here) […]
nM dexamethasone, 10 µM GW3965 (LXRα agonist), and 10 µM estradiol. Data are presented as a […]

PXR/NCOA2 = target: T2, PXR/NCOA2 (Homo sapiens, UniProt O75469); assay: Mammalian two-hybrid PXR/coactivator NCOA2 recruitment, HepG2; format: cell-based; set-up: key: firefly/Metridia luciferase activity ratio (normalized)
T2 construct: PXR-LBD (residues 108–434); expressed in transfected cells; host or cells: HepG2
Method: The GAL4-dependent pGL4-G5, harboring a pentamer of GAL4 binding sites in front of the E1b promoter was described before.
Transient batch transfection of HepG2 cells was done as described above. […] All transfections included 0.01 µg pMetLuc2control per well for normalization of firefly luciferase reporter activities. After overnight incubation with the transfection mixtures, cells were treated with chemicals in a volume of 100 µl of cell culture medium. […] Firefly luciferase activity was measured in 10 µl of cell lysates, and Metridia luciferase activity was analyzed in 10 µl of medium supernatant, both as described before. Results were normalized by dividing firefly luciferase activity by Metridia luciferase activity measured from the same well. Measurements of samples were repeated several times (n ≥ 3).

[5] = male mice, MI-883 5 mg/kg 3× per week p.o., unit not given, 5 mg/kg

## NC(=O)c1cc(Cn2cc(-c3c(-c4ccc(Cl)cc4)nc4cc(F)ccn34)nn2)ccc1Cl [MI-883, 2-chloro-5-((4-(2-(4-chlorophenyl)-7-fluoroimidazo[1,2-a]pyridin-3-yl)-1H-1,2,3-triazol-1-yl)methyl)benzamide]
Human PXR; HepG2 cells, read-out: IC50, basal PXR activation
  IC50: 2030 ± 300 nM
Human PXR; HepG2 cells, read-out: IC50, rifampicin-induced PXR activation
  IC50: 3600 ± 400 nM
Human PXR; reply to reviewers, read-out: IC50 for PXR antagonistic activity
  IC50: 2000 nM
[1]
  free cholesterol in the liver (per liver protein or LW): significantly decreased
  liver C4 and C4/total cholesterol: did not increase
  liver lathosterol, total cholesterol, cholesteryl esters (CE): did not show significant changes
[1]; [5]
  liver C4, individual animals: 742.5 and 1060.6 and 588.1 and 517.8 and 1677.1 and 810.7 and 1283.7 and 1057.8 and 1099.9
  liver cholesteryl esters (CE), individual animals: 23 and 16.4 and 24.1 and 22.4 and 62.3 and 32.9 and 18.7 and 38.2 and 47.6
  liver free cholesterol (Free CH), individual animals: 40.3 and 36.2 and 35.7 and 37.4 and 37.7 and 32.3 and 38.3 and 39.6 and 40.5
  liver lathosterol, individual animals: 1.57 and 2.018 and 2.101 and 1.895 and 2.439
  liver total cholesterol (TotCh), individual animals: 63.3 and 52.6 and 59.8 and 100 and 65.2 and 57 and 77.8 and 88.1
[2]
  half-life at 1 µM: > 2 h
[3]
  genotoxicity / mutagenicity: not genotoxic; also recorded: nonmutagenic
[4]; Rif 1μM + MI-883 1μM
  RT-qPCR in LS174T (Fig 1 l, CYP3A4 mRNA), replicates: 2.91 and 2.35 and 2.61
[4]; Rif 1μM + test compound 10μM
  RT-qPCR in LS174T (Fig 1 l, CYP3A4 mRNA), replicates: 0.86 and 1.1 and 0.8
[4]; Rif 10μM + MI-883 1μM
  RT-qPCR in LS174T (Fig 1 l, CYP3A4 mRNA), replicates: 10.4 and 6.9 and 8.3
[4]; Rif 10μM + MI-883 10μM
  RT-qPCR in LS174T (Fig 1 l, CYP3A4 mRNA), replicates: 3.35 and 2.8 and 2.2
[4]; SR12813 1μM + MI-883 1μM
  RT-qPCR in LS174T (Fig 1 l, CYP3A4 mRNA), replicates: 0.55 and 0.68 and 0.64
[4]; SR12813 1μM + test compound 10μM
  RT-qPCR in LS174T (Fig 1 l, CYP3A4 mRNA), replicates: 0.77 and 0.59 and 0.57
[4]; single agent 1μM, ctrl = 1
  RT-qPCR in LS174T (Fig 1 l, CYP3A4 mRNA), replicates: 0.45 and 0.96 and 0.51
[4]; single agent 10μM
  RT-qPCR in LS174T (Fig 1 l, CYP3A4 mRNA), replicates: 0.59 and 0.57 and 0.55
PPARδ/β
  NRs assays: PPARd (relative to ctrl, replicates): 1.06 and 1.19 and 1.12
ERα
  NRs assays: ERalpha (relative to ctrl, replicates): 0.77 and 1.06 and 0.79
ERα; 10 μM MI-883
  inhibition of estrogen receptor alpha (ERα), antagonistic mode: weak inhibitor
PXR/NCOA2; MI-883 30 μM
  PXR/TIF2 (NCOA2) two-hybrid activity, replicates: 1.15 and 1.65 and 1.3 and 1.26 and 0.52
PXR/NCOA2; single agent: RIF (10 µM), MI-883 10 μM
  PXR/TIF2 (NCOA2) two-hybrid activity, replicates: 0.75 and 0.81 and 0.95 and 0.79 and 0.57
